Calls of active or inactive are those of the source. The calls are words filed in the database; no cut-off is given here.
What was measured:
[1] = target: T1, Aldehyde dehydrogenase X, mitochondrial (Homo sapiens) (UniProt P30837); assay: Activation of recombinant human ALDH1B1 using propionaldehyde as substrate at 100 uM preincubated for 2 mins with NAD+ followed by substrate addition by UV-Vis spectrophotometric analysis
T1 sequence (whole entry): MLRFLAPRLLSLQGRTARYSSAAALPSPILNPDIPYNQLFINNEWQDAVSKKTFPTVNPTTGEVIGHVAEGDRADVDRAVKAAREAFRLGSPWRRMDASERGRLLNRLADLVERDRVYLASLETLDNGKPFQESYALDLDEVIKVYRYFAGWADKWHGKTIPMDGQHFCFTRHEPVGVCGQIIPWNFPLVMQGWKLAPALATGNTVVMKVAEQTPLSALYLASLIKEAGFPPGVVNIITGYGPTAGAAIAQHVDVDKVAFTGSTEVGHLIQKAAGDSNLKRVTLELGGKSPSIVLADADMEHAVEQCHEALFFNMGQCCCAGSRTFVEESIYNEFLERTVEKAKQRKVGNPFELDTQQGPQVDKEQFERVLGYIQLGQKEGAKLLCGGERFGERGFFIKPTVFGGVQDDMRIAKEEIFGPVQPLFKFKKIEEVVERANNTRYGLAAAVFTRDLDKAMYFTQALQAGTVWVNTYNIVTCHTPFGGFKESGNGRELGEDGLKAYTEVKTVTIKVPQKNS

[2] = target: T1, Aldehyde dehydrogenase X, mitochondrial (Homo sapiens); assay: Effect on recombinant human ALDH1B1 using propionaldehyde as substrate at 20 uM preincubated for 2 mins with NAD+ followed by substrate addition by UV-Vis spectrophotometric analysis
[3] = target: T2, Aldehyde dehydrogenase, mitochondrial (Homo sapiens) (UniProt P05091); assay: Effect on recombinant human ALDH2 using propionaldehyde as substrate at 20 uM preincubated for 2 mins with NAD+ followed by substrate addition by UV-Vis spectrophotometric analysis
T2 sequence (whole entry): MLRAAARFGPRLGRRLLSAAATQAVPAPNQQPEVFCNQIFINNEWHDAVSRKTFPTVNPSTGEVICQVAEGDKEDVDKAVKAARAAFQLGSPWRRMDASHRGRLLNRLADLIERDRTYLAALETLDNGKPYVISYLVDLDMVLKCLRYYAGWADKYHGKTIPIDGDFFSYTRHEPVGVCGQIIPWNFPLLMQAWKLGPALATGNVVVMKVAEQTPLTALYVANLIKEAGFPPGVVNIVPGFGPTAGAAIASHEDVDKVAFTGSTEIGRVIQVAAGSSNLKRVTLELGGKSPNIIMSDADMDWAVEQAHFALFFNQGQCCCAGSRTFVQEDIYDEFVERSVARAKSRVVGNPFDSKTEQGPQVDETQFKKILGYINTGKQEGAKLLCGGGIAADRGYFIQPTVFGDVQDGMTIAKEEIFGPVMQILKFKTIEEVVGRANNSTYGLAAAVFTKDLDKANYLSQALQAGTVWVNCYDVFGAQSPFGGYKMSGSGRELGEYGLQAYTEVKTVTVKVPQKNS

[4] = target: T3, Aldehyde dehydrogenase, dimeric NADP-preferring (Homo sapiens) (UniProt P30838); assay: Effect on recombinant human ALDH3A1 using benzaldehyde as substrate at 20 uM preincubated for 2 mins with NAD+ followed by substrate addition by UV-Vis spectrophotometric analysis
T3 sequence (whole entry): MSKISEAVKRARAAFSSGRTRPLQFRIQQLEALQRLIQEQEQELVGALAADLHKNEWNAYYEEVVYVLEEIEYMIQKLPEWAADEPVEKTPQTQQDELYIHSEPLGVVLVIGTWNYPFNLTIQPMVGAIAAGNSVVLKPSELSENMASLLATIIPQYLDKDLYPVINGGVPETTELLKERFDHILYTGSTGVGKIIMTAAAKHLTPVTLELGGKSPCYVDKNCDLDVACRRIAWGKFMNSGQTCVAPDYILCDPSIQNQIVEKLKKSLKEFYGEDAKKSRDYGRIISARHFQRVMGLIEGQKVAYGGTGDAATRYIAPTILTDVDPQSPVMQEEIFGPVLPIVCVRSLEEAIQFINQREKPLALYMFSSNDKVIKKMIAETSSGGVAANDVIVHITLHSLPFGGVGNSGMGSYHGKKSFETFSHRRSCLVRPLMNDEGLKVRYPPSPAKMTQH

[5] = target: T4, Delta-1-pyrroline-5-carboxylate dehydrogenase, mitochondrial (Homo sapiens) (UniProt P30038); assay: Effect on human ALDH4A1 at 20 uM preincubated for 2 mins with NAD+ followed by aldehyde substrate addition
T4 sequence (whole entry): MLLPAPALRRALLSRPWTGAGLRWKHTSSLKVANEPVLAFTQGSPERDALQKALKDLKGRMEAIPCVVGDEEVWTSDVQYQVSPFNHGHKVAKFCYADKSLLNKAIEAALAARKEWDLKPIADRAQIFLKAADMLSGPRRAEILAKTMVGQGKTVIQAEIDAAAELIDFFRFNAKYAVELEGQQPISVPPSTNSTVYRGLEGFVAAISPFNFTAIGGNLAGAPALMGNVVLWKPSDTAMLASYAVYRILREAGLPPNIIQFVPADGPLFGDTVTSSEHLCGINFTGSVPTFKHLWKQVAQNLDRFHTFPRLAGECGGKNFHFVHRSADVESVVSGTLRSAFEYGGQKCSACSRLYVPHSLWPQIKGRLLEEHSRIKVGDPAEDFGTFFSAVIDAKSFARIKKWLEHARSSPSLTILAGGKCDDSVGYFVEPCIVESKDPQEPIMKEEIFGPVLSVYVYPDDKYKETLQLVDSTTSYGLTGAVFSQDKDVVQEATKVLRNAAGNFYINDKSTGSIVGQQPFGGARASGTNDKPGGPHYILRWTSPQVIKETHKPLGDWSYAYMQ

[6] = target: T5, Retinaldehyde dehydrogenase 3 (Homo sapiens, UniProt P47895); assay: Inhibition of recombinant human ALDH1A3 using propionaldehyde as substrate preincubated for 2 mins with NAD+ followed by substrate addition by UV-Vis spectrophotometric analysis
T5 sequence (P47895 whole entry): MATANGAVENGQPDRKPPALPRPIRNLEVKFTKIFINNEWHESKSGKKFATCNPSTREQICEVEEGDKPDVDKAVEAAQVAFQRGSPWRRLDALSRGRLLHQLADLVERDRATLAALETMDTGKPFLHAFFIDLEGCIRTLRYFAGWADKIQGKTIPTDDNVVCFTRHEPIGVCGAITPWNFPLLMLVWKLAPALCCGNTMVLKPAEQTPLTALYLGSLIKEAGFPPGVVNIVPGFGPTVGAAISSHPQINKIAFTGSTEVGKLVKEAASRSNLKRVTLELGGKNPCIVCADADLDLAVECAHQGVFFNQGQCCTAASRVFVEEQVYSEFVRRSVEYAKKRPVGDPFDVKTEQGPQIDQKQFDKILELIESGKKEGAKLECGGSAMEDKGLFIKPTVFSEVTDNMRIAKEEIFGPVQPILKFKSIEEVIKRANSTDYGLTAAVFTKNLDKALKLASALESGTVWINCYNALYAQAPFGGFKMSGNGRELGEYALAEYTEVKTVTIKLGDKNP

Row | Activity [1] | IC50 [6] | SMILES | also measured
1 | Active | – | Cn1c(=O)c2c(nc(N3CCN(Cc4ccccc4)CC3)n2Cc2cccc(Cl)c2)n(C)c1=O | –
2 | Active | – | CC(C)CCn1c(CN2CCN(C(=O)c3ccco3)CC2)nc2c1c(=O)n(C)c(=O)n2C | Activity [2]: inactive; Activity [3]: inactive; Activity [4]: inactive; Activity [5]: inactive
3 | – | > 20 µM | CCCCn1c(CN2CCN(c3cccc(Cl)c3)CC2)nc2c1c(=O)n(C)c(=O)n2C | –
4 | – | > 100 µM | CCCCn1c(CN2CCN(c3ccc(OC)cc3)CC2)nc2c1c(=O)n(C)c(=O)n2C | –

— ChEMBL document CHEMBL3414499, “Characterization of two distinct structural classes of selective aldehyde dehydrogenase 1A1 inhibitors” (J Med Chem, 2015)
